In this experiment the target is hQC (Homo sapiens, UniProt Q16769). As to the kind of experiment: Inhibitor assay for glutaminyl cyclase activity (fluorometric, H-Gln-βNA / H-Gln-AMC). In kind it is biochemical. An outline of the steps: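 Ki values came from fitting progress curves to a competitive inhibition model; rapid screens used 4 mM inhibitor with substrate at KM. QC activity was read at 30 °C via auxiliary pyroglutamyl aminopeptidase releasing βNA (0.2 mM H-Gln-βNA, 0.2 M Tris pH 8.0, 20 mM EDTA) or AMC (0.05 M Tris pH 8.0, 5 mM EDTA).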

Setting [1] is: compound from preparative synthesis, purified, read-out: IC50 hQC.

Like-named read-outs stand apart in the source and are kept apart here.

Sequence of hQC (Q16769 29-361): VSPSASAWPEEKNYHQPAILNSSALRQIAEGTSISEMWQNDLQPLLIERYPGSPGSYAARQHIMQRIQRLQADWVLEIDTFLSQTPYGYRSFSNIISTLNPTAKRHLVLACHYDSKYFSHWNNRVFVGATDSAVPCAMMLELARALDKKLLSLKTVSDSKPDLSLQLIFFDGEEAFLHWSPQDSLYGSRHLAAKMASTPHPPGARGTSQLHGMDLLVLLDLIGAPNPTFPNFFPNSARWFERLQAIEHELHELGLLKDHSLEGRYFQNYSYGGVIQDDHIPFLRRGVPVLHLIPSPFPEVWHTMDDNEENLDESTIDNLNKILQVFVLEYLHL

Regarding `CCC1=C(O)C(=O)N(c2ccc3[nH]cnc3c2)C1c1cc(Cl)ccc1O` (centres unmarked) [Compound 276, 1-(1H-Benzoimidazol-5-yl)-5-(5-chloro-2-hydroxy-phenyl)-4-ethyl-3-hydroxy-1,5-dihydro-pyrrol-2-one], for the setting “read-out: IC50”, the IC50 was 4.36 µM. On the same count and under the same terms, with `O=C1C(O)=C(c2c[nH]c3ccccc23)C(c2ccc3nsnc3c2)N1c1ccc2[nH]cnc2c1` (centres unmarked) [Compound 457] the figure was 0.004 µM; with `O=C1C(O)=C(c2ccc(O)cc2)C(C2CC2)N1CCCn1ccnc1` (centres unmarked) [Compound 175, 5-Cyclopropyl-3-hydroxy-4-(4-hydroxy-phenyl)-1-(3-imidazol-1-yl-propyl)-1,5-dihydro-pyrrol-2-one], 0.04 µM; with `O=C1C(O)=C(c2ccc(O)cc2)C(c2ccncc2)N1CCCn1ccnc1` (centres unmarked) [Compound 172, 3-Hydroxy-4-(4-hydroxy-phenyl)-1-(3-imidazol-1-yl-propyl)-5-pyridin-4-yl-1,5-dihydro-pyrrol-2-one], 7.6 µM. As to `CCCC(=O)C1=C(O)C(=O)N(c2ccc3[nH]cnc3c2)C1c1ccc(O)c(Br)c1` (centres unmarked) [Compound 344, 1-(1H-Benzoimidazol-5-yl)-5-(3-bromo-4-hydroxy-phenyl)-4-butyryl-3-hydroxy-1,5-dihydro-pyrrol-2-one], the IC50 (read-out: IC50) turned out to be 0.4 µM.

Regarding `CCCCCC(=O)C1=C(O)C(=O)N(c2ccc3[nH]cnc3c2)C1c1cccc(C)c1` (centres unmarked) [Compound 411, 1-(1H-Benzoimidazol-5-yl)-4-hexanoyl-3-hydroxy-5-m-tolyl-1,5-dihydro-pyrrol-2-one], the IC50 (read-out: IC50) is 1.39 µM.

Take `CCC1=C(O)C(=O)N(CCCn2ccnc2)C1c1ccccc1F` (centres unmarked) [Compound 250, 4-Ethyl-5-(2-fluoro-phenyl)-3-hydroxy-1-(3-imidazol-1-yl-propyl)-1,5-dihydro-pyrrol-2-one]: under “read-out: IC50”, the IC50 came to 1.3 µM. Still for that read-out and setting: with `CCCCCC1=C(O)C(=O)N(CCCn2ccnc2)C1c1cc[nH]n1` (centres unmarked) [Compound 188, 3-Hydroxy-1-(3-imidazol-1-yl-propyl)-4-pentyl-5-(1H-pyrazol-3-yl)-1,5-dihydro-pyrrol-2-one] the figure was 0.4 µM; with `CC1=C(O)C(=O)N(CCCn2ccnc2)C1c1ccc2[nH]ccc2c1` (centres unmarked) [Compound 26, 3-Hydroxy-1-(3-imidazol-1-yl-propyl)-5-(1H-indol-5-yl)-4-methyl-1,5-dihydro-pyrrol-2-one], 0.04 µM; with `CCCCC1C(CC)=C(O)C(=O)N1CCCn1ccnc1` (centres unmarked) [Compound 248, 5-Butyl-4-ethyl-3-hydroxy-1-(3-imidazol-1-yl-propyl)-1,5-dihydro-pyrrol-2-one], 2.2 µM. For `O=C1C(O)=C(c2c[nH]c3ccccc23)C(c2cccc(Cl)c2)N1CCCn1ccnc1` (centres unmarked) [Compound 143, 5-(3-Chloro-phenyl)-3-hydroxy-1-(3-imidazol-1-yl-propyl)-4-(1H-indol-3-yl)-1,5-dihydro-pyrrol-2-one], the IC50 reads like this: under setting [1], 0.134 µM; (read-out: IC50) 0.04 µM. Turning to `CCCC(=O)C1=C(O)C(=O)N(c2ccc3[nH]cnc3c2)C1c1c[nH]c2ccccc12` (centres unmarked) [Compound 268, 1-(1H-Benzoimidazol-5-yl)-4-butyryl-3-hydroxy-5-(1H-indol-3-yl)-1,5-dihydro-pyrrol-2-one], the IC50 (read-out: IC50) was found to be 8.59 µM. The same measure, in the same setting: the result for `O=C1C(O)=C(c2ccccc2)C(c2ccc(O)cc2)N1CCCn1ccnc1` (centres unmarked) [Compound 111, 3-Hydroxy-5-(4-hydroxy-phenyl)-1-(3-imidazol-1-yl-propyl)-4-phenyl-1,5-dihydro-pyrrol-2-one] reads 0.4 µM; that for `CC(=O)C1=C(O)C(=O)N(c2ccc3[nH]cnc3c2)C1c1cnc2ccccc2c1` (centres unmarked) [Compound 360, 4-Acetyl-1-(1H-benzoimidazol-5-yl)-3-hydroxy-5-quinolin-3-yl-1,5-dihydro-pyrrol-2-one], 0.04 µM.

For the molecule `Cc1cccc(C2C(c3ccc(O)cc3)=C(O)C(=O)N2c2ccc3[nH]cnc3c2)c1` (centres unmarked) [Compound 429, 1-(1H-Benzoimidazol-5-yl)-3-hydroxy-4-(4-hydroxy-phenyl)-5-m-tolyl-1,5-dihydro-pyrrol-2-one], the IC50 (read-out: IC50) was 1.39 µM. Regarding `CCCC(=O)C1=C(O)C(=O)N(c2ccc3[nH]cnc3c2)C1c1ccc(C)o1` (centres unmarked) [Compound 256, 1-(1H-Benzoimidazol-5-yl)-4-butyryl-3-hydroxy-5-(5-methyl-furan-2-yl)-1,5-dihydro-pyrrol-2-one], the IC50 is 0.203 µM under setting [1] and 0.004 µM (read-out: IC50).

For `CCC1C(C(C)=O)=C(O)C(=O)N1c1ccc2[nH]cnc2c1` (centres unmarked) [Compound 439, 4-Acetyl-1-(1H-benzoimidazol-5-yl)-5-ethyl-3-hydroxy-1,5-dihydro-pyrrol-2-one], where the note is “read-out: IC50”, the IC50 is 2.74 µM. In the case of `O=C1C(O)=C(c2cccc(O)c2)C(c2ccc(CO)o2)N1CCCn1ccnc1` (centres unmarked) [Compound 17, 3-Hydroxy-5-(5-hydroxymethyl-furan-2-yl)-4-(3-hydroxy-phenyl)-1-(3-imidazol-1-yl-propyl)-1,5-dihydro-pyrrol-2-one], the IC50 (read-out: IC50) amounted to 5.8 µM. Turning to `CCC1=C(O)C(=O)N(CCCn2ccnc2)C1c1cc[nH]n1` (centres unmarked) [Compound 224, 4-Ethyl-3-hydroxy-1-(3-imidazol-1-yl-propyl)-5-(1H-pyrazol-3-yl)-1,5-dihydro-pyrrol-2-one], the IC50 (read-out: IC50) came to 1.3 µM.

On to `CCC1=C(O)C(=O)N(CCCn2ccnc2)C1c1ccncc1` (centres unmarked) [Compound 244, 4-Ethyl-3-hydroxy-1-(3-imidazol-1-yl-propyl)-5-pyridin-4-yl-1,5-dihydro-pyrrol-2-one], for which the IC50 (read-out: IC50) is 0.4 µM. For the molecule `O=C(C1=C(O)C(=O)N(c2ccc3[nH]cnc3c2)C1c1ccc(CO)o1)C1CCCCC1` (centres unmarked) [Compound 303, 1-(1H-Benzoimidazol-5-yl)-4-cyclohexanecarbonyl-3-hydroxy-5-(5-hydroxymethyl-furan-2-yl)-1,5-dihydro-pyrrol-2-one], the IC50 (read-out: IC50) stood at 0.4 µM.

Turning to `CCC1=C(O)C(=O)N(CCCn2ccnc2)C1c1c[nH]c2ccccc12` (centres unmarked) [Compound 241, 4-Ethyl-3-hydroxy-1-(3-imidazol-1-yl-propyl)-5-(1H-indol-3-yl)-1,5-dihydro-pyrrol-2-one], the IC50 (read-out: IC50) turned out to be 0.04 µM.

For the molecule `CC(C)C1=C(O)C(=O)N(CCCn2ccnc2)C1c1ccccc1F` (centres unmarked) [Compound 74, 5-(2-Fluoro-phenyl)-3-hydroxy-1-(3-imidazol-1-yl-propyl)-4-isopropyl-1,5-dihydro-pyrrol-2-one], under “read-out: IC50”, the IC50 came out at 2.2 µM.

For `CC1=C(O)C(=O)N(c2ccc3[nH]cnc3c2)C1c1ccc2nonc2c1` (centres unmarked) [Compound 351, 1-(1H-Benzoimidazol-5-yl)-5-(benzo[c][1,2,5]oxadiazol-5-yl)-3-hydroxy-4-methyl-1,5-dihydro-pyrrol-2-one], the IC50 (read-out: IC50) worked out at 1.21 µM. Same read-out and setting: with `CC(=O)C1=C(O)C(=O)N(c2ccc3[nH]cnc3c2)C1CCC(=O)O` (centres unmarked) [Compound 450, 3-[3-Acetyl-1-(1H-benzoimidazol-5-yl)-4-hydroxy-5-oxo-2,5-dihydro-1H-pyrrol-2-yl]-propionic acid] the figure was 9.49 µM; with `CC(=O)C1=C(O)C(=O)N(c2ccc3[nH]cnc3c2)C1C1CCOC1` (centres unmarked) [Compound 314, 4-Acetyl-1-(1H-benzoimidazol-5-yl)-3-hydroxy-5-(tetrahydro-furan-3-yl)-1,5-dihydro-pyrrol-2-one], 4.81 µM. On the same count and under the same terms, the result for `O=C(O)CC1=C(O)C(=O)N(c2ccc3[nH]cnc3c2)C1c1cccc(F)c1` (centres unmarked) [Compound 311, [1-(1H-Benzoimidazol-5-yl)-2-(3-fluoro-phenyl)-4-hydroxy-5-oxo-2,5-dihydro-1H-pyrrol-3-yl]-acetic acid] reads 4.54 µM. As to `CC(C)(C)C(=O)C1=C(O)C(=O)N(c2ccc3[nH]cnc3c2)C1c1ccc2cccc(O)c2n1` (centres unmarked) [Compound 310, 1-(1H-Benzoimidazol-5-yl)-4-(2,2-dimethyl-propionyl)-3-hydroxy-5-(8-hydroxy-quinolin-2-yl)-1,5-dihydro-pyrrol-2-one], the IC50 (read-out: IC50) worked out at 1.03 µM.

With `CC(C)C1=C(O)C(=O)N(CCCn2ccnc2)C1C1=CCCCC1` (centres unmarked) [Compound 67, 5-Cyclohex-1-enyl-3-hydroxy-1-(3-imidazol-1-yl-propyl)-4-isopropyl-1,5-dihydro-pyrrol-2-one], the IC50 (read-out: IC50) worked out at 2.2 µM. The same measure, in the same setting: with `CCC1=C(O)C(=O)N(CCCn2ccnc2)C1c1ccco1` (centres unmarked) [Compound 247, 4-Ethyl-5-furan-2-yl-3-hydroxy-1-(3-imidazol-1-yl-propyl)-1,5-dihydro-pyrrol-2-one] the figure was 1.3 µM; with `CCC1=C(O)C(=O)N(CCCn2ccnc2)C1/C=C/C(C)C` (centres unmarked) [Compound 226, 4-Ethyl-3-hydroxy-1-(3-imidazol-1-yl-propyl)-5-(3-methyl-but-1-enyl)-1,5-dihydro-pyrrol-2-one], 3.1 µM.

Regarding `CC(C)CC(=O)C1=C(O)C(=O)N(c2ccc3[nH]cnc3c2)C1c1c(F)c(F)cc(F)c1F` (centres unmarked) [Compound 423, 1-(1H-Benzoimidazol-5-yl)-3-hydroxy-4-(3-methyl-butyryl)-5-(2,3,5,6-tetrafluoro-phenyl)-1,5-dihydro-pyrrol-2-one], where the note is “read-out: IC50”, the IC50 stood at 0.04 µM. In the case of `CC(C)(C)C(=O)C1=C(O)C(=O)N(c2ccc3[nH]cnc3c2)C1c1cc[nH]n1` (centres unmarked) [Compound 405, 1-(1H-Benzoimidazol-5-yl)-4-(2,2-dimethyl-propionyl)-3-hydroxy-5-(1H-pyrazol-3-yl)-1,5-dihydro-pyrrol-2-one], where the note is “read-out: IC50”, the IC50 was 2.2 µM. Same read-out and setting: the result for `O=C1C(O)=C(c2c[nH]c3ccccc23)C(C(O)CO)N1CCCn1ccnc1` (centres unmarked) [Compound 117, 5-(1,2-Dihydroxy-ethyl)-3-hydroxy-1-(3-imidazol-1-yl-propyl)-4-(1H-indol-3-yl)-1,5-dihydro-pyrrol-2-one] reads 0.4 µM. The same measure, in the same setting: the result for `CCC1=C(O)C(=O)N(CCCn2ccnc2)C1c1ccc(CO)o1` (centres unmarked) [Compound 234, 4-Ethyl-3-hydroxy-5-(5-hydroxymethyl-furan-2-yl)-1-(3-imidazol-1-yl-propyl)-1,5-dihydro-pyrrol-2-one] reads 1.3 µM. Same read-out and setting: the result for `CCC(C)C1C(c2ccccc2)=C(O)C(=O)N1CCCn1ccnc1` (centres unmarked) [Compound 79, 5-sec-Butyl-3-hydroxy-1-(3-imidazol-1-yl-propyl)-4-phenyl-1,5-dihydro-pyrrol-2-one] reads 0.4 µM.

As a reminder, the IC50 is the midpoint of a concentration-inhibition curve.
